Assay [1] deals with T1, catalytic domain of human Bub1 (amino acids 704-1085) (Homo sapiens, UniProt O43683).
T1 construct: catalytic domain of human Bub1 (amino acids 704-1085); His6 (N); made in house; host or cells: Hi5 insect cells
Nature of the assay: Bub1 kinase assay (TR-FRET). The conditions noted are these: 10 μM ATP, 1 μM peptide substrate, read-out: Biological Assay 1: Bub1 kinase assay median IC50. In kind it is biochemical. From the text:
Bub1-inhibitory activities of compounds described in the present invention were quantified using a time-resolved fluorescence energy transfer (TR-FRET) kinase assay which measures phosphorylation of the synthetic peptide Biotin-Ahx-VLLPKKSFAEPG (SEQ ID No. 1) (C-terminus in amide form), purchased from e.g. Biosyntan (Berlin, Germany) by the (recombinant) catalytic domain of human Bub1 (amino acids 704-1085), expressed in Hi5 insect cells with an N-terminal His6-tag and purified by affinity- (Ni-NTA) and size exclusion chromatography.
In a typical assay 11 different concentrations of each compound (0.1 nM, 0.33 nM, 1.1 nM, 3.8 nM, 13 nM, 44 nM, 0.15 μM, 0.51 μM, 1.7 μM, 5.9 μM and 20 μM) were tested in duplicate within the same microtiter plate. To this end, 100-fold concentrated compound solutions (in DMSO) were previously prepared by serial dilution (1:3.4) of 2 mM stocks in a clear low volume 384-well source microtiter plate (Greiner Bio-One, Frickenhausen, Germany), from which 50 nL of compounds were transferred into a black low volume test microtiter plate from the same supplier. Subsequently, 2 μL of Bub1 (the final concentration of Bub1 was adjusted depending on the activity of the enzyme lot in order to be within the linear dynamic range of the assay: typically ˜200 ng/mL were used) in aqueous assay buffer [50 mM Tris/HCl pH 7.5, 10 mM magnesium chloride (MgCl2), 200 mM potassium chloride (KCl), 1.0 mM dithiothreitol (DTT), 0.1 mM sodium ortho-vanadate, 1% (v/v) glycerol, 0.01% (w/v) bovine serum albumine (BSA), 0.005% (v/v) Trition X-100 (Sigma), 1× Complete EDTA-free protease inhibitor mixture (Roche)] were added to the compounds in the test plate and the mixture was incubated for 15 min at 22° C. to allow pre-equilibration of the putative enzyme-inhibitor complexes before the start of the kinase reaction, which was initiated by the addition of 3 μL 1.67-fold concentrated solution (in assay buffer) of adenosine-tri-phosphate (ATP, 10 μM final concentration) and peptide substrate (1 μM final concentration). The resulting mixture (5 μL final volume) was incubated at 22° C. during 60 min., and the reaction was stopped by the addition of 5 μL of an aqueous EDTA-solution (50 mM EDTA, in 100 mM HEPES pH 7.5 and 0.2% (w/v) bovine serum albumin) which also contained the TR-FRET detection reagents (0.2 μM streptavidin-XL665 [Cisbio Bioassays, Codolet, France] and 1 nM anti-phosho-Serine antibody [Merck Millipore, cat. #35-001] and 0.4 nM LANCE EU-W1024 labeled anti-mouse IgG antibody [Perkin-Elmer, product no. AD0077, alternatively a Terbium-cryptate-labeled anti-mouse IgG antibody from Cisbio Bioassays can be used]). The stopped reaction mixture was further incubated 1 h at 22° C. in order to allow the formation of complexes between peptides and detection reagents. Subsequently, the amount of product was evaluated by measurement of the resonance energy transfer from the Eu-chelate-antibody complex recognizing the Phosphoserine residue to the streptavidin-XL665 bound to the biotin moiety of the peptide. To this end, the fluorescence emissions at 620 nm and 665 nm after excitation at 330-350 nm were measured in a TR-FRET plate reader, e.g. a Rubystar or Pherastar (both from BMG Labtechnologies, Offenburg, Germany) or a Viewlux (Perkin-Elmer) and the ratio of the emissions (665 nm/622 nm) was taken as indicator for the amount of phosphorylated substrate. The data were normalised using two sets of (typically 32-) control wells for high- (=enzyme reaction without inhibitor=0%=Minimum inhibition) and low- (=all assay components without enzyme=100%=Maximum inhibition) Bub1 activity. […] values were calculated by fitting the normalized inhibition data to a 4-parameter logistic equation (Minimum, Maximum, IC50, Hill; Y=Max+(Min−Max)/(1+(X/IC50)Hill)).
On the technique in general: TR-FRET usually uses a lanthanide donor and a delayed reading to cut background.

The subject of assay [2] is HeLa human cervical cancer cell line. In words: Proliferation assay (HeLa cell line), crystal violet staining. It is filed as cell-based. Conditions: 96 h, HeLa cells, 4 days incubation, read-out: Biological Assay 2: Proliferation assay (HeLa cell line) median IC50. On the procedure:
Cultivated tumor cells (cells were ordered from ATCC) were plated at a density of 3000 cells/well in a 96-well multititer plate in 200 μL of growth medium supplemented 10% fetal calf serum. After 24 hours, the cells of one plate (zero-point plate) were stained with crystal violet (see below), while the medium of the other plates was replaced by fresh culture medium (200 μL), to which the test substances were added in various concentrations (0 μM, as well as in the range of 0.001-10 μM; the final concentration of the solvent dimethyl sulfoxide was 0.5%). The cells were incubated for 4 days in the presence of test substances. Cell proliferation was determined by staining the cells with crystal violet: the cells were fixed by adding 20 μL/measuring point of an 11% glutaric aldehyde solution for 15 minutes at room temperature. After three washing cycles of the fixed cells with water, the plates were dried at room temperature. The cells were stained by adding 100 μL/measuring point of a 0.1% crystal violet solution (pH 3.0). After three washing cycles of the stained cells with water, the plates were dried at room temperature. The dye was dissolved by adding 100 μL/measuring point of a 10% acetic acid solution. Absorbtion was determined by photometry at a wavelength of 595 nm. The change of cell number, in percent, was calculated by normalization of the measured values to the absorbtion values of the zero-point plate (=0%) and the absorbtion of the untreated (0 μm) cells (=100%). The IC50 values were determined by means of a 4 parameter fit.

Bounds are passed on as bounds.

T1 sequence (O43683 704-1085): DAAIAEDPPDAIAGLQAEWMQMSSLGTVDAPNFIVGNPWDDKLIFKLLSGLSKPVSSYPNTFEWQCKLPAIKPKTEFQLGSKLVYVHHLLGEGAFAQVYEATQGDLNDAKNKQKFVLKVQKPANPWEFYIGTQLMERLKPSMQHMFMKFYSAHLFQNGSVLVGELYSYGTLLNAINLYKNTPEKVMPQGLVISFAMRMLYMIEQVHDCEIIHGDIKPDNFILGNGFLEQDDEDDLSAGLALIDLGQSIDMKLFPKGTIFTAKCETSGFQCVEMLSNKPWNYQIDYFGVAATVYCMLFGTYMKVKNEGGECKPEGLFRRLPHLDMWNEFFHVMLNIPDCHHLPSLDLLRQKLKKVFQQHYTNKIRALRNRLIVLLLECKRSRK

Regarding `CCOc1cc(F)c(Cn2nc(-c3cc(Nc4ccncn4)n(CCN4CCOCC4)n3)c(C)c2C2CC2)c(F)c1` [Example 2-1-1, 5′-cyclopropyl-1′-(4-ethoxy-2,6-difluorobenzyl)-4′-methyl-1-[2-(morpholin-4-yl)ethyl]-N-(pyrimidin-4-yl)-1H,1′H-3,3′-bipyrazol-5-amine], the IC50 in assay [1] turned out to be 680 nM.

Turning to `CCOc1cc(F)c(Cn2nc(-c3cc(Nc4ccncn4)n(C(C)=O)n3)c(C)c2C2CC2)c(F)c1` [Example 2-1-2, 1-[5′-cyclopropyl-1′-(4-ethoxy-2,6-difluorobenzyl)-4′-methyl-5-(pyrimidin-4-ylamino)-1H,1′H-3,3′-bipyrazol-1-yl]ethanone], the IC50 in assay [1] was at least 20000 nM; in assay [2] it was over 10000 nM.

Turning to `CCOc1cc(F)c(Cn2nc(-c3cc(Nc4ccncn4)n(CC(=O)O)n3)c(C)c2C2CC2)c(F)c1` [Example 2-1-3, [5′-cyclopropyl-1′-(4-ethoxy-2,6-difluorobenzyl)-4′-methyl-5-(pyrimidin-4-ylamino)-1H,1′H-3,3′-bipyrazol-1-yl]acetic acid], the IC50 in assay [1] is 1100 nM; in assay [2], over 10000 nM.

In the case of `CCOc1cc(F)c(Cn2nc(-c3cc(Nc4ccncn4)n(C)n3)c(C)c2C2CC2)c(F)c1` [Example 2-1-4, 5′-cyclopropyl-1′-(4-ethoxy-2,6-difluorobenzyl)-1,4′-dimethyl-N-(pyrimidin-4-yl)-1H,1′H-3,3′-bipyrazol-5-amine], the IC50 in assay [1] stood at 34 nM.

As for `CCOc1cc(F)c(Cn2nc(-c3cc(Nc4ccncn4)n(CCS(C)(=O)=O)n3)c(C)c2C2CC2)c(F)c1` [Example 2-2-1, 5′-cyclopropyl-1′-(4-ethoxy-2,6-difluorobenzyl)-4′-methyl-1-[2-(methylsulfonyl)ethyl]-N-(pyrimidin-4-yl)-1H,1′H-3,3′-bipyrazol-5-amine], the IC50 in assay [1] was at least 20000 nM.

For the compound `CCOc1cc(F)c(Cn2nc(-c3cc(Nc4ccncc4)n(C)n3)c(C)c2C2CC2)c(F)c1` [Example 2-3-1, 5′-cyclopropyl-1′-(4-ethoxy-2,6-difluorobenzyl)-1,4′-dimethyl-N-(pyridin-4-yl)-1H,1′H-3,3′-bipyrazol-5-amine], the IC50 turned out to be 390 nM in assay [1] and 3500 nM in assay [2].

Take `CCOc1cc(F)c(Cn2nc(-c3nc(Nc4ccncc4)n(CCOC)n3)c(C)c2C2CC2)c(F)c1` [Example 2-3-2, N-{3-[5-cyclopropyl-1-(4-ethoxy-2,6-difluorobenzyl)-4-methyl-1H-pyrazol-3-yl]-1-(2-methoxyethyl)-1H-1,2,4-triazol-5-yl}pyridin-4-amine]: the IC50 in assay [1] was 12 nM; in assay [2], over 10000 nM.

As to `CCOc1cc(F)c(Cn2nc(-c3nc(Nc4ccncc4)n(CCO)n3)c(C)c2C2CC2)c(F)c1` [Example 2-3-3, 2-{3-[5-cyclopropyl-1-(4-ethoxy-2,6-difluorobenzyl)-4-methyl-1H-pyrazol-3-yl]-5-(pyridin-4-ylamino)-1H-1,2,4-triazol-1-yl}ethanol], the values for the IC50 in assay [1] and in assay [2] were 22 nM and over 10000 nM, respectively.

Take `CCOc1cc(F)c(Cn2nc(-c3n[nH]c(Nc4ccncc4)n3)c(C)c2C2CC2)c(F)c1` [Example 2-3-4, N-{3-[5-cyclopropyl-1-(4-ethoxy-2,6-difluorobenzyl)-4-methyl-1H-pyrazol-3-yl]-1H-1,2,4-triazol-5-yl}pyridin-4-amine]: in assay [1], the IC50 was 82 nM.

Consider `CCOC(=O)c1cnccc1Nc1nc(-c2nn(Cc3c(F)cc(OCC)cc3F)c(C3CC3)c2C)nn1CCOC` [Example 2-4-1, ethyl 4-({3-[5-cyclopropyl-1-(4-ethoxy-2,6-difluorobenzyl)-4-methyl-1H-pyrazol-3-yl]-1-(2-methoxyethyl)-1H-1,2,4-triazol-5-yl}amino)nicotinate], for which, in assay [1], the IC50 is 91 nM.

As to `CCOc1cc(F)c(Cn2nc(-c3nc(Nc4ccncc4)n(CCOC)n3)c3ccccc32)c(F)c1` [Example 2-5-1, N-{3-[1-(4-ethoxy-2,6-difluorobenzyl)-1H-indazol-3-yl]-1-(2-methoxyethyl)-1H-1,2,4-triazol-5-yl}pyridin-4-amine], in assay [1], the IC50 is 13 nM.

For the compound `CCOc1cc(F)c(Cn2nc(-c3nc(Nc4ccncc4)nn3CCOC)c3ccccc32)c(F)c1` [Example 2-5-2, N-{5-[1-(4-ethoxy-2,6-difluorobenzyl)-1H-indazol-3-yl]-1-(2-methoxyethyl)-1H-1,2,4-triazol-3-yl}pyridin-4-amine], the IC50 in assay [1] is 600 nM.

On to `CCOc1cc(F)c(Cn2nc(-n3cc(Nc4ccncn4)cn3)c3ccccc32)c(F)c1` [Example 2-6-1, N-{1-[1-(4-ethoxy-2,6-difluorobenzyl)-1H-indazol-3-yl]-1H-pyrazol-4-yl}pyrimidin-4-amine], for which the IC50 in assay [1] was 26 nM; in assay [2] it was over 10000 nM.

With `Fc1ccccc1Cn1nc(-c2nsc(Nc3ccncc3)n2)c2ccccc21` [Example 2-7-1, N-{3-[1-(2-fluorobenzyl)-1H-indazol-3-yl]-1,2,4-thiadiazol-5-yl}-pyridin-4-amine], the IC50 in assay [1] is 2200 nM; in assay [2], 9100 nM.

For the origin of these results see patent US9682974B2, “Heteroaryl substituted pyrazoles” (BAYER PHARMA AKTIENGESELLSCHAFT, priority 2013, dated 2017).
